Some test systems named below: NCI-H522; NCI-H460; SR; T47D; NCI-H23; SK-MEL-5; SF-295; K562; A549; HOP-92; OVCAR-4; SK-MEL-2; PC-3; Malme-3M; A498; SW-620; SNB-75; M14; HCT-116; ACHN.
Common to all, as to experiment: NCI tumour cell line growth inhibition, 48 h

SMILES strings stand for the structures.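 Dose response: 5 concentrations. Exposure: 48 h. Format: 96-well plates. Endpoint: linear interpolation; highest concentration if not reached. Abbreviation: GI50, concentration required for 50% inhibition of growth.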 The source made the active and inactive calls. Cut-off read from the data, not from the text of the source: active = GI50 up to about 1.1 µM and inactive = higher.

On to `O=C1N=C(Nc2ccccc2Cl)N/C1=C\c1ccc(Cl)cc1Cl`, for which the GI50 in the assay on NCI-H522 was 11.9 µM (inactive); in the assay with NCI-H460 it was 49.2 µM (inactive); with SR, 5.3 µM (inactive); in the assay on T47D it was > 100 µM (inactive); in the assay on NCI-H23, > 100 µM (inactive); in the assay with SK-MEL-5, 71.9 µM (inactive). The GI50 in the assay with SF-295 was 60.8 µM (inactive); in the assay with K562 it was 9.46 µM (inactive); in the assay with A549, 98.9 µM (inactive); with HOP-92 it was 39.9 µM (inactive); with OVCAR-4, 44.3 µM (inactive); in the assay on SK-MEL-2, 18.9 µM (inactive). The GI50 in the assay with PC-3 was 33.7 µM (inactive); in the assay on Malme-3M, 53.6 µM (inactive); with A498, 33.1 µM (inactive); in the assay on SW-620, 46.3 µM (inactive); with SNB-75, 29.9 µM (inactive); with M14, 72.6 µM (inactive). The GI50 was 38.4 µM (inactive) in the assay on HCT-116 and 62.1 µM (inactive) in the assay on ACHN.
Take `CCOc1cc2c(NCCCN(CCO)CCO)ncnc2c(OCC)c1OCC`: the GI50 in the assay with NCI-H522 is > 100 µM (inactive); in the assay with NCI-H460 it was > 100 µM (inactive); in the assay with SR, > 100 µM (inactive); in the assay on T47D, > 90.4 µM (inactive); with NCI-H23 it was > 100 µM (inactive); with SK-MEL-5, > 100 µM (inactive). Besides, the GI50 with SF-295 was > 100 µM (inactive); with K562 it was > 100 µM (inactive); with A549, > 94.4 µM (inactive); in the assay with HOP-92 it was 34.3 µM (inactive); with OVCAR-4, > 88.5 µM (inactive); in the assay on SK-MEL-2, > 87.3 µM (inactive). Moreover, the GI50 was > 100 µM (inactive) in the assay on PC-3; 55.6 µM (inactive) in the assay on Malme-3M; > 73.5 µM (inactive) in the assay with A498; > 100 µM (inactive) with SW-620; > 74.8 µM (inactive) in the assay on SNB-75; > 83.2 µM (inactive) in the assay with M14. The GI50 with HCT-116 and in the assay with ACHN was > 100 µM (inactive) throughout.
On to `COc1ccc(NC(=O)NNS(=O)(=O)c2ccc(C)cc2)cc1`, for which the GI50 in the assay on NCI-H522 is 45.1 µM (inactive); in the assay on NCI-H460, > 100 µM (inactive); with SR, 63 µM (inactive); in the assay on T47D, > 100 µM (inactive); with NCI-H23 it was 52.8 µM (inactive); in the assay on SK-MEL-5, 74 µM (inactive). Moreover, the GI50 with SF-295 was > 100 µM (inactive); in the assay on K562 it was > 100 µM (inactive); in the assay with A549, > 100 µM (inactive); in the assay on HOP-92, > 100 µM (inactive); in the assay on OVCAR-4, 25.1 µM (inactive); in the assay on SK-MEL-2, > 100 µM (inactive). Also, the GI50 is 71 µM (inactive) with PC-3; > 100 µM (inactive) in the assay with Malme-3M; > 100 µM (inactive) in the assay on A498; > 100 µM (inactive) in the assay on SW-620; 29.4 µM (inactive) in the assay on SNB-75; > 100 µM (inactive) with M14. Besides, the GI50 is > 100 µM (inactive) in the assay with HCT-116 and 91.6 µM (inactive) in the assay on ACHN.
Take `COc1ccc2c(c1)CCC(CN1CCN(CCOC(c3ccc(F)cc3)c3ccc(F)cc3)CC1)=C2`: the GI50 in the assay on NCI-H522 is 13.9 µM (inactive); in the assay with NCI-H460, 12.4 µM (inactive); in the assay with SR, 3.71 µM (inactive); in the assay on T47D it was 8.45 µM (inactive); in the assay on NCI-H23, 14.8 µM (inactive); in the assay on SK-MEL-5 it was 5.22 µM (inactive). For the same molecule, the GI50 with SF-295 is 22.2 µM (inactive); with K562, 4.47 µM (inactive); in the assay on A549, 27.5 µM (inactive); in the assay with HOP-92 it was 16.1 µM (inactive); in the assay on OVCAR-4, 24.8 µM (inactive); in the assay with SK-MEL-2, 15.8 µM (inactive). The GI50 in the assay with PC-3 is 16.8 µM (inactive); in the assay on Malme-3M, 14.4 µM (inactive); in the assay on A498, 8.36 µM (inactive); in the assay on SW-620, 22.9 µM (inactive); with SNB-75, 46.5 µM (inactive); in the assay on M14, 9.31 µM (inactive). Also, the values for the GI50 in the assay on HCT-116 and with ACHN were 7.26 µM (inactive) and 13.3 µM (inactive), respectively.
With `O=C(NCCCCCCCCCCCCNC(=O)Nc1cccc2ccccc12)Nc1cccc2ccccc12`, the GI50 with NCI-H522 is 13.7 µM (inactive); in the assay with NCI-H460, 15.5 µM (inactive); in the assay on SR it was 16.7 µM (inactive); in the assay with T47D it was 19.1 µM (inactive); with NCI-H23 it was 16.8 µM (inactive); with SK-MEL-5, 20.8 µM (inactive). For the same molecule, the GI50 in the assay on SF-295 was 14.1 µM (inactive); in the assay on K562, 20.2 µM (inactive); in the assay with A549 it was 18.2 µM (inactive); in the assay with HOP-92, 12.1 µM (inactive); with OVCAR-4, 11.2 µM (inactive); with SK-MEL-2, 15.2 µM (inactive). Moreover, the GI50 with PC-3 is 16.2 µM (inactive); with Malme-3M, 15.3 µM (inactive); in the assay with A498, 16.9 µM (inactive); in the assay with SW-620, 17.4 µM (inactive); with SNB-75 it was 12.9 µM (inactive); with M14, 20.1 µM (inactive). The GI50 with HCT-116 was 17.5 µM (inactive); with ACHN it was 14 µM (inactive).
As for `O=C1Nc2c(Cl)cc(Cl)cc2/C1=N/Nc1ccccc1[N+](=O)[O-]`, the GI50 is 35.2 µM (inactive) in the assay with NCI-H522; 54.5 µM (inactive) in the assay with NCI-H460; 5.45 µM (inactive) in the assay with SR; 70.5 µM (inactive) in the assay with T47D; 26.1 µM (inactive) in the assay on NCI-H23; > 100 µM (inactive) in the assay with SK-MEL-5. For the same molecule, the GI50 in the assay with SF-295 is 11.7 µM (inactive); with K562, 38.6 µM (inactive); in the assay on A549, 69.2 µM (inactive); in the assay with HOP-92, 12 µM (inactive); in the assay with OVCAR-4 it was 29 µM (inactive); in the assay on SK-MEL-2 it was 18.2 µM (inactive). For the same molecule, the GI50 in the assay with PC-3 was 40.8 µM (inactive); in the assay with Malme-3M it was 29.2 µM (inactive); in the assay with A498, 55.7 µM (inactive); in the assay on SW-620 it was > 100 µM (inactive); in the assay on SNB-75, 4.28 µM (inactive); in the assay with M14, 39.3 µM (inactive). The GI50 is 38.2 µM (inactive) in the assay with HCT-116 and 11.6 µM (inactive) in the assay on ACHN.
As for `CC(=O)NC1C(OCc2ccccc2)OC(CO)C(O)C1OC(C)C(=O)NC(C)C(=O)N[C@@H](CCC(=O)OCCCNC1c2ccccc2Nc2cccc([N+](=O)[O-])c21)C(N)=O` (stereo not given in full), the GI50 in the assay on NCI-H522 is < 0.01 µM (active); in the assay on NCI-H460 it was < 0.01 µM (active); with SR, < 0.01 µM (active); in the assay with T47D, 0.174 µM (active); in the assay with NCI-H23, < 0.01 µM (active); in the assay on SK-MEL-5 it was < 0.01 µM (active). Further, the GI50 in the assay with SF-295 was 0.0155 µM (active); in the assay with K562, < 0.01 µM (active); in the assay with A549 it was < 0.01 µM (active); in the assay with HOP-92, < 0.01 µM (active); with OVCAR-4, < 0.0111 µM (active); in the assay with SK-MEL-2, < 0.01 µM (active). The GI50 was 0.0266 µM (active) with PC-3; < 0.01 µM (active) in the assay on Malme-3M; < 0.01 µM (active) in the assay on A498; < 0.01 µM (active) in the assay on SW-620; 0.0135 µM (active) in the assay with SNB-75; < 0.01 µM (active) in the assay with M14. For the same molecule, the GI50 in the assay with HCT-116 and in the assay with ACHN was < 0.01 µM (active) each time.
